Experimental findings from patent publication US20120264735A1 (priority 2009, published 2012) are described below.

SMILES strings stand for the structures. pIC50: −log10 of the molar value.

T1 sequence (P08581 25-1390): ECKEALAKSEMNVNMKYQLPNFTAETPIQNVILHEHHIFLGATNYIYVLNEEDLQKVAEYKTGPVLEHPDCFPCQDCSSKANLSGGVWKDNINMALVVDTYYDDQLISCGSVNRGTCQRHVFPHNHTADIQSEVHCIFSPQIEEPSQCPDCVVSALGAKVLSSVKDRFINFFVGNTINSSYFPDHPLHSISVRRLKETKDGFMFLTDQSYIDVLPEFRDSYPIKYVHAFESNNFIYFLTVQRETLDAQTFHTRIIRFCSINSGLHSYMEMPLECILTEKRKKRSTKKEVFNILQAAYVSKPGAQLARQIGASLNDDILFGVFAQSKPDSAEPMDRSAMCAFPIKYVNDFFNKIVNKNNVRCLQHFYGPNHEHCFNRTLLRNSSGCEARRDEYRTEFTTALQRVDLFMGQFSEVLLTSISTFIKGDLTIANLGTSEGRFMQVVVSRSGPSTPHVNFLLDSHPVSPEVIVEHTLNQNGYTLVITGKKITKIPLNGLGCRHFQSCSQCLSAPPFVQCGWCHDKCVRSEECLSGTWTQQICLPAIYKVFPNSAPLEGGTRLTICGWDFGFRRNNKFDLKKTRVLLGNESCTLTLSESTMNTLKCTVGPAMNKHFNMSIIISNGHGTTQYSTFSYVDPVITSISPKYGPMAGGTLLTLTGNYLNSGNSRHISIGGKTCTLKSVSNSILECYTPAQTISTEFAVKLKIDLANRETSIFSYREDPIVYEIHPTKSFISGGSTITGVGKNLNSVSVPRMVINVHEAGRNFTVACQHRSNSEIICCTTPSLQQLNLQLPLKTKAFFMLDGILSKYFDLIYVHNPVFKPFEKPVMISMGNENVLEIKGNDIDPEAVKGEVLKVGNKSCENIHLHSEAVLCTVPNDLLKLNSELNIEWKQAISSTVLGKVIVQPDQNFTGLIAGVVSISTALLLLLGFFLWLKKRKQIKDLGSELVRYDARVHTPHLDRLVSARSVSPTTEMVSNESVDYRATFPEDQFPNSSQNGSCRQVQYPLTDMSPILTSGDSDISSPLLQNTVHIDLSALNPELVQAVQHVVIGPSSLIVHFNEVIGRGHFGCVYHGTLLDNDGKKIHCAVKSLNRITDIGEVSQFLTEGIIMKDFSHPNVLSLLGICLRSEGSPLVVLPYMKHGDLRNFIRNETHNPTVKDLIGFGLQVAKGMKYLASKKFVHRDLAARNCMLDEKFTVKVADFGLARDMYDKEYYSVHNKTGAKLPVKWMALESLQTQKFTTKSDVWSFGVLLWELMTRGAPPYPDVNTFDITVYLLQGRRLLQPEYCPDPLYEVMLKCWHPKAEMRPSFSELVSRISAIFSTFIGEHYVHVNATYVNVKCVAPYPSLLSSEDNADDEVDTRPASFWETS

This experiment has as its target T1, c-Met kinase (recombinant c-Met) (Homo sapiens, UniProt P08581).
T1 construct: 0.27 nM recombinant c-Met
The experiment can be described thus: In vitro kinase assay I (homogeneous time-resolved fluorescence tyrosine kinase assay). Format: biochemical. In outline: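 Biotinylated peptide (0.5 μM) phosphorylated by 0.2 nM recombinant c-Met with 50 μM MgATP, 60 min at room temperature, pH 7.4, 5% DMSO. EDTA stop; HTRF read with Eu-anti-phosphotyrosine antibody and streptavidin-APC. IC50 from 4-parameter logistic fit.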
For the compound `COCCn1cc(-n2ccc(=O)c(Cc3cccc(NC(=O)OCC(C)C)c3)n2)cn1` [Example 108, 2-methylpropyl [3-({1-[1-(2-methoxyethyl)-1H-pyrazol-4-yl]-4-oxo-1,4-dihydropyridazin-3-yl}methyl)phenyl]carbamate], the pIC50 (commonly −log10 of the IC50, conventionally taken in molar units) was more than 7.00.

Regarding `CCOC(=O)Nc1cccc(Cc2nn(-c3cnn(CC)c3)ccc2=O)c1` [Example 109, ethyl (3-{[1-(1-ethyl-1H-pyrazol-4-yl)-4-oxo-1,4-dihydropyridazin-3-yl]methyl}phenyl)carbamate], the pIC50 is more than 7.00.

Regarding `CCn1cc(-n2ccc(=O)c(Cc3cccc(NC(=O)OCC(C)C)c3)n2)cn1` [Example 110, 2-methylpropyl (3-{[1-(1-ethyl-1H-pyrazol-4-yl)-4-oxo-1,4-dihydropyridazin-3-yl]methyl}phenyl)carbamate], the pIC50 is more than 7.00.

As to `CCOC(=O)Nc1cccc(Cc2nn(-c3cnn(CC(F)(F)F)c3)ccc2=O)c1` [Example 111, ethyl [3-({4-oxo-1-[1-(2,2,2-trifluoroethyl)-1H-pyrazol-4-yl]-1,4-dihydropyridazin-3-yl}methyl)phenyl]carbamate], the pIC50 is more than 7.00.

`CCCn1cc(-n2ccc(=O)c(Cc3cccc(NC(=O)OCC)c3)n2)cn1` [Example 112, ethyl (3-{[4-oxo-1-(1-propyl-1H-pyrazol-4-yl)-1,4-dihydropyridazin-3-yl]methyl}phenyl)carbamate]: the pIC50 is more than 7.00.

For `CCCn1cc(-n2ccc(=O)c(Cc3cccc(NC(=O)OCC(C)C)c3)n2)cn1` [Example 113, 2-methylpropyl (3-{[4-oxo-1-(1-propyl-1H-pyrazol-4-yl)-1,4-dihydropyridazin-3-yl]methyl}phenyl)carbamate], the pIC50 is more than 7.00.

With `CCCn1cc(-n2ccc(=O)c(Cc3cccc(-c4ncc(OC)cn4)c3)n2)cn1` [Example 114, 3-[3-(5-methoxypyrimidin-2-yl)benzyl]-1-(1-propyl-1H-pyrazol-4-yl)pyridazin-4(1H)-one], the negative-log IC50 (pIC50) is more than 7.00.

As to `CCn1cc(-n2ccc(=O)c(Cc3cccc(NC(=O)OCCN4CCOCC4)c3)n2)cn1` [Example 115, 2-morpholin-4-ylethyl (3-{[1-(1-ethyl-1H-pyrazol-4-yl)-4-oxo-1,4-dihydropyridazin-3-yl]methyl}phenyl)carbamate], the pIC50 is more than 7.00.

`O=C(Nc1cccc(Cc2nn(-c3cnn(CC(F)(F)F)c3)ccc2=O)c1)OCCN1CCOCC1` [Example 116, 2-morpholin-4-ylethyl [3-({4-oxo-1-[1-(2,2,2-trifluoroethyl)-1H-pyrazol-4-yl]-1,4-dihydropyridazin-3-yl}methyl)phenyl]carbamate]: the pIC50 was more than 7.00.

As to `CCCn1cc(-n2ccc(=O)c(Cc3cccc(NC(=O)OCCN4CCOCC4)c3)n2)cn1` [Example 117, 2-morpholin-4-ylethyl (3-{[4-oxo-1-(1-propyl-1H-pyrazol-4-yl)-1,4-dihydropyridazin-3-yl]methyl}phenyl)carbamate], the pIC50 is more than 7.00.

Take `CCOc1cnc(-c2ccc(F)c(Cc3nn(-c4cnn(C)c4)ccc3=O)c2)nc1` [Example 118, 3-[5-(5-ethoxypyrimidin-2-yl)-2-fluorobenzyl]-1-(1-methyl-1H-pyrazol-4-yl)pyridazin-4(1H)-one]: the negative logarithm of the IC50 (pIC50) is more than 7.00.

As for `CCOc1cnc(-c2cc(Cc3nn(-c4cnn(C)c4)ccc3=O)ccc2F)nc1` [Example 119, 3-[3-(5-ethoxypyrimidin-2-yl)-4-fluorobenzyl]-1-(1-methyl-1H-pyrazol-4-yl)pyridazin-4(1H)-one], the pIC50 was 6.00 to 7.00.

Turning to `CCOc1cnc(-c2cc(F)cc(Cc3nn(-c4cnn(C)c4)ccc3=O)c2)nc1` [Example 120, 3-[3-(5-ethoxypyrimidin-2-yl)-5-fluorobenzyl]-1-(1-methyl-1H-pyrazol-4-yl)pyridazin-4(1H)-one], the pIC50 was more than 7.00.

As for `CCOc1cnc(-c2cccc(Cc3nn(-c4cnn(C)c4)ccc3=O)c2F)nc1` [Example 121, 3-[3-(5-ethoxypyrimidin-2-yl)-2-fluorobenzyl]-1-(1-methyl-1H-pyrazol-4-yl)pyridazin-4(1H)-one], the pIC50 was 6.00 to 7.00.

For the compound `Cn1cc(-n2ccc(=O)c(Cc3cccc(-c4ncc(O[C@H]5CC[C@](C)(O)CC5)cn4)c3)n2)cn1` [Example 122, 3-(3-{5-[(trans-4-hydroxy-4-methylcyclohexyl)oxy]pyrimidin-2-yl}benzyl)-1-(1-methyl-1H-pyrazol-4-yl)pyridazin-4(1H)-one], the pIC50 is more than 7.00.

Regarding `Cn1cc(-n2ccc(=O)c(Cc3cccc(-c4ncc(OC5CCC6(CC5)OCCO6)cn4)c3)n2)cn1` [Example 123, 3-{3-[5-(1,4-dioxaspiro[4.5]dec-8-yloxy)pyrimidin-2-yl]benzyl}-1-(1-methyl-1H-pyrazol-4-yl)pyridazin-4(1H)-one], the pIC50 was more than 7.00.

As to `O=c1ccn(-c2ccc(F)c(F)c2)nc1Cc1cccc(-c2ncc(OCc3ccccc3)cn2)c1` [Example 124, 3-{3-[5-(benzyloxy)pyrimidin-2-yl]benzyl}-1-(3,4-difluorophenyl)pyridazin-4(1H)-one], the pIC50 is more than 7.00.

On to `O=c1ccn(-c2cc(F)cc(F)c2)nc1Cc1cccc(-c2ncc(OCc3ccccc3)cn2)c1` [Example 125, 3-{3-[5-(benzyloxy)pyrimidin-2-yl]benzyl}-1-(3,5-difluorophenyl)pyridazin-4(1H)-one], for which the pIC50 is more than 7.00.

Regarding `COc1cnc(-c2cccc(Cc3nn(-c4cc(Cl)cc(C#N)c4)ccc3=O)c2)nc1` [Example 126, 3-chloro-5-{3-[3-(5-methoxypyrimidin-2-yl)benzyl]-4-oxopyridazin-1(4H)-yl}benzonitrile], the pIC50 is more than 7.00.

Take `COCCOC(=O)Nc1cccc(Cc2nn(-c3cc(Cl)cc(C#N)c3)ccc2=O)c1` [Example 127, 2-methoxyethyl (3-{[1-(3-chloro-5-cyanophenyl)-4-oxo-1,4-dihydropyridazin-3-yl]methyl}phenyl)carbamate]: the negative logarithm of the IC50 (pIC50) was more than 7.00.

Consider `COc1cnc(-c2cccc(Cc3nn(-c4cc(F)cc(C#N)c4)ccc3=O)c2)nc1` [Example 128, 3-fluoro-5-{3-[3-(5-methoxypyrimidin-2-yl)benzyl]-4-oxopyridazin-1(4H)-yl}benzonitrile], for which the pIC50 was more than 7.00.

As to `COCCOC(=O)Nc1cccc(Cc2nn(-c3cncc(C#N)c3)ccc2=O)c1` [Example 129, 2-methoxyethyl (3-{[1-(5-cyanopyridin-3-yl)-4-oxo-1,4-dihydropyridazin-3-yl]methyl}phenyl)carbamate], the pIC50 is more than 7.00.

`COCCOc1cnc(-c2cccc(Cc3nn(-c4cncc(C#N)c4)ccc3=O)c2)nc1` [Example 132, 5-[3-{3-[5-(2-methoxyethoxy)pyrimidin-2-yl]benzyl}-4-oxopyridazin-1(4H)-yl]pyridine-3-carbonitrile]: the negative-log IC50 (pIC50) is more than 7.00.

Regarding `CCOc1cnc(-c2cccc(Cc3nn(-c4cc(F)cc(C#N)c4)ccc3=O)c2)nc1` [Example 133, 3-{3-[3-(5-ethoxypyrimidin-2-yl)benzyl]-4-oxopyridazin-1(4H)-yl}-5-fluorobenzonitrile], the pIC50 was more than 7.00.

Consider `COCCOc1cnc(-c2cccc(Cc3nn(-c4cc(F)cc(C#N)c4)ccc3=O)c2)nc1` [Example 134, 3-fluoro-5-[3-{3-[5-(2-methoxyethoxy)pyrimidin-2-yl]benzyl}-4-oxopyridazin-1(4H)-yl]benzonitrile], for which the pIC50 is more than 7.00.
